Assays:
Type in all cases: functional
[1] = system: Rattus norvegicus; experiment: Antidyslipidemic activity in WR-1339-induced hyperlipidemic Charles Foster rat assessed as reduction in plasma cholesterol level at 100 mg/kg, po after 18 hrs; set-up: scale not given: the % may be the effect or the level left
[2] = system: Rattus norvegicus; experiment: Antidyslipidemic activity in WR-1339-induced hyperlipidemic Charles Foster rat assessed as reduction in plasma triglyceride level at 100 mg/kg, po after 18 hrs; set-up: scale not given: the % may be the effect or the level left
[3] = system: Rattus norvegicus; experiment: Antidyslipidemic activity in WR-1339-induced hyperlipidemic Charles Foster rat assessed as reduction in plasma phospholipid level at 100 mg/kg, po after 18 hrs; set-up: scale not given: the % may be the effect or the level left
[4] = Antioxidant activity assessed as inhibition of superoxide at 20 ug/mL
[5] = Antioxidant activity assessed as inhibition of microsomal lipid peroxidation at 100 ug/mL
[6] = Antioxidant activity assessed as inhibition of superoxide at 100 ug/mL
[7] = Antioxidant activity assessed as inhibition of hydroxyl radical at 100 ug/mL

Row | Compound | Activity [1] | Activity [2] | Activity [3] | inhibition [4] | inhibition [5] | inhibition [6] | inhibition [7]
1 | Cc1ccc(C)c(OCCCC(C)(C)C(=O)O)c1 [GEMFIBROZIL] | 33% | 34% | 32% |  |  |  | 
2 | Oc1ncnc2[nH]ncc12 |  |  |  | 90% |  |  | 
3 | Cc1cc(=O)oc2c3c(ccc12)C(=O)/C(=C\NCCC1CNCCO1)C=C3C=O (stereo not given) | 20% | 25% | 21% |  | 31% |  | 
4 | CCCCCCCN/C=C1/C=C(C=O)c2c(ccc3c(C)cc(=O)oc23)C1=O | 24% | 22% | 20% |  | 34% | 45% | 49%
5 | Cc1c(C)c2c(c(C)c1O)CC[C@@](C)(CCC[C@H](C)CCC[C@H](C)CCCC(C)C)O2 |  |  |  |  | 45% |  | 48%
6 | Cc1cc(=O)oc2c1ccc1c(O)c(C=O)cc(C=O)c12 | 23% | 21% | 25% |  | 27% | 72% | 52%
7 | OC[C@@H](O)[C@@H](O)[C@H](O)[C@H](O)CO |  |  |  |  | 45% |  | 48%
8 | CCCCN/C=C1/C=C(C=O)c2c(ccc3c(C)cc(=O)oc23)C1=O |  |  |  |  | 37% |  | 

From ChEMBL document CHEMBL1154434, “Novel keto-enamine Schiffs bases from 7-hydroxy-4-methyl-2-oxo-2H-benzo[h] chromene-8,10-dicarbaldehyde as potential antidyslipidemic and antioxidant agents” (2008)
